Test results published in patent publication US20210045385A1, “PYRIDAZINONE-SUBSTITUTED KETOXIMES AS HERBICIDES” (FMC Corporation, priority 2018, published 2021).

Experiments:
Type in all cases: in vivo
[1] = test system: sedge, umbrella (small-flower umbrella sedge, Cyperus difformis); assay: Test B flooded paddy test, visual plant response rating; details: 250 g ai/ha, Flood, applied to paddy water, 2-leaf stage, evaluated after 13 to 15 days
Outline: (§1)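 At the two-leaf stage, seedlings received compound applied to paddy water flooded 3 cm above soil, a level sustained until assessment. Greenhouse incubation lasted 13 to 15 days before visual comparison with control plants.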

rice (Oryza sativa) = assay: as above; details: 250 g ai/ha, Flood, applied to paddy water, 2-leaf stage, evaluated after 13 to 15 days
Outline: as §1

[2] = test system: barnyardgrass (Echinochloa crus-galli); assay: as above; details: 250 g ai/ha, Flood, applied to paddy water, 2-leaf stage, evaluated after 13 to 15 days
Outline: as §1

[3] = test system: ducksalad (Heteranhera limosa); assay: as above; details: 250 g ai/ha, Flood, applied to paddy water, 2-leaf stage, evaluated after 13 to 15 days
Outline: as §1

[4] = test system: foxtail, giant (giant foxtail, Setaria faberii); assay: Test A postemergence, visual plant response rating; details: for Foxtail, Giant plant response rating (0 to 100 scale): 500 g ai/ha, postemergence, 0 is no effect, 100 is complete control; for Foxtail, Giant plant response rating: Postemergence, 125 g ai/ha, 0 to 100 scale (0 no effect, 100 complete control)
Outline: (§2)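 Greenhouse evaluation, approx. 10 days post-spray. Soil: loam + sand. Postemergence stage: 1–2 leaves, height 2–10 cm. Vehicle: non-phytotoxic solvent blend with surfactant. Score: visual injury on a 0 (no effect) to 100 (complete control) scale.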

[5] = test system: wheat (Triticum aestivum); assay: Test A postemergence, visual plant response rating; details: for Wheat plant response rating (0 to 100 scale): 500 g ai/ha, postemergence, 0 is no effect, 100 is complete control; for Wheat plant response rating: Postemergence, 125 g ai/ha, 0 to 100 scale (0 no effect, 100 complete control)
Outline: as §2

[6] = test system: blackgrass (Alopecurus myosuroides); assay: Test A postemergence, visual plant response rating; details: for Blackgrass plant response rating (0 to 100 scale): 500 g ai/ha, postemergence, 0 is no effect, 100 is complete control; for Blackgrass plant response rating: Postemergence, 125 g ai/ha, 0 to 100 scale (0 no effect, 100 complete control)
Outline: as §2

kochia (Kochia scoparia) [7] = assay: Test A postemergence, visual plant response rating; details: for Kochia plant response rating (0 to 100 scale): 500 g ai/ha, postemergence, 0 is no effect, 100 is complete control; for Kochia plant response rating: Postemergence, 125 g ai/ha, 0 to 100 scale (0 no effect, 100 complete control)
Outline: as §2

[8] = test system: pigweed (Amaranthus retroflexus); assay: Test A postemergence, visual plant response rating; details: for Pigweed plant response rating (0 to 100 scale): 500 g ai/ha, postemergence, 0 is no effect, 100 is complete control; for Pigweed plant response rating: Postemergence, 125 g ai/ha, 0 to 100 scale (0 no effect, 100 complete control)
Outline: as §2

[9] = test system: galium (catchweed bedstraw, Galium aparine); assay: Test A postemergence, visual plant response rating; details: for Galium plant response rating (0 to 100 scale): 500 g ai/ha, postemergence, 0 is no effect, 100 is complete control; for Galium plant response rating: Postemergence, 125 g ai/ha, 0 to 100 scale (0 no effect, 100 complete control)
Outline: as §2

[10] = test system: barnyardgrass (Echinochloa crus-galli); assay: Test A postemergence, visual plant response rating; details: for Barnyardgrass plant response rating (0 to 100 scale): 500 g ai/ha, postemergence, 0 is no effect, 100 is complete control; for Barnyardgrass plant response rating: Postemergence, 125 g ai/ha, 0 to 100 scale (0 no effect, 100 complete control)
Outline: as §2

corn (Zea mays) = assay: Test A postemergence, visual plant response rating; details: for Corn plant response rating (0 to 100 scale): 500 g ai/ha, postemergence, 0 is no effect, 100 is complete control; for Corn plant response rating: Postemergence, 125 g ai/ha, 0 to 100 scale (0 no effect, 100 complete control)
Outline: as §2

[11] = test system: ragweed (common ragweed, Ambrosia elatior); assay: Test A postemergence, visual plant response rating; details: for Ragweed plant response rating (0 to 100 scale): 500 g ai/ha, postemergence, 0 is no effect, 100 is complete control; for Ragweed plant response rating: Postemergence, 125 g ai/ha, 0 to 100 scale (0 no effect, 100 complete control)
Outline: as §2

[12] = test system: Italian ryegrass (Lolium multiflorum); assay: Test A postemergence, visual plant response rating; details: for Ryegrass, Italian plant response rating (0 to 100 scale): 500 g ai/ha, postemergence, 0 is no effect, 100 is complete control; for Ryegrass, Italian plant response rating: Postemergence, 125 g ai/ha, 0 to 100 scale (0 no effect, 100 complete control)
Outline: as §2

[13] = test system: foxtail, giant (giant foxtail, Setaria faberii); assay: Test A preemergence, visual plant response rating; details: for Foxtail, Giant plant response rating: 125 g ai/ha, preemergence, 0 to 100 scale, 0 no effect, 100 complete control; for Foxtail, Giant plant response rating (0 to 100 scale): 500 g ai/ha Preemergence, approx. 10 days
Outline: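 Compared with untreated controls, treated plants received a visual injury score on a 0–100 scale around 10 days after application. The compound, in a non-phytotoxic solvent with surfactant, was given as a preemergence soil spray or postemergence at the one- to two-leaf stage.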

kochia (Kochia scoparia) [14] = assay: Test A preemergence, visual plant response rating; details: for Kochia plant response rating: 125 g ai/ha, preemergence, 0 to 100 scale, 0 no effect, 100 complete control; for Kochia plant response rating (0 to 100 scale): 500 g ai/ha Preemergence, approx. 10 days
Outline: as §2

[15] = test system: pigweed (Amaranthus retroflexus); assay: Test A preemergence, visual plant response rating; details: for Pigweed plant response rating: 125 g ai/ha, preemergence, 0 to 100 scale, 0 no effect, 100 complete control; for Pigweed plant response rating (0 to 100 scale): 500 g ai/ha Preemergence, approx. 10 days
Outline: as §2

[16] = test system: barnyardgrass (Echinochloa crus-galli); assay: Test A preemergence, visual plant response rating; details: for Barnyardgrass plant response rating: 125 g ai/ha, preemergence, 0 to 100 scale, 0 no effect, 100 complete control; for Barnyardgrass plant response rating (0 to 100 scale): 500 g ai/ha Preemergence, approx. 10 days
Outline: as §2

[17] = test system: ragweed (common ragweed, Ambrosia elatior); assay: Test A preemergence, visual plant response rating; details: for Ragweed plant response rating: 125 g ai/ha, preemergence, 0 to 100 scale, 0 no effect, 100 complete control; for Ragweed plant response rating (0 to 100 scale): 500 g ai/ha Preemergence, approx. 10 days
Outline: as §2

[18] = test system: Italian ryegrass (Lolium multiflorum); assay: Test A preemergence, visual plant response rating; details: for Ryegrass, Italian plant response rating: 125 g ai/ha, preemergence, 0 to 100 scale, 0 no effect, 100 complete control; for Ryegrass, Italian plant response rating (0 to 100 scale): 500 g ai/ha Preemergence, approx. 10 days
Outline: as §2

Row | SMILES | Plant response rating, Sedge, Umbrella (0 to 100 scale, 0 is no effect, 100 is complete control) [1] | Plant response rating, Rice (0 to 100 scale, 0 is no effect, 100 is complete control) (rice (Oryza sativa)) | Plant response rating, Barnyardgrass (0 to 100 scale, 0 is no effect, 100 is complete control) [2] | Plant response rating, Ducksalad (0 to 100 scale, 0 is no effect, 100 is complete control) [3] | Foxtail, Giant plant response rating (0 to 100 scale) [4] | Foxtail, Giant plant response rating [4] | Wheat plant response rating (0 to 100 scale) [5] | Wheat plant response rating [5] | Blackgrass plant response rating (0 to 100 scale) [6] | Blackgrass plant response rating [6] | Kochia plant response rating (0 to 100 scale) (kochia (Kochia scoparia) [7]) | Kochia plant response rating (kochia (Kochia scoparia) [7]) | Pigweed plant response rating (0 to 100 scale) [8] | Pigweed plant response rating [8] | Galium plant response rating (0 to 100 scale) [9] | Galium plant response rating [9] | Barnyardgrass plant response rating (0 to 100 scale) [10] | Barnyardgrass plant response rating [10] | Corn plant response rating (0 to 100 scale) (corn (Zea mays)) | Corn plant response rating (corn (Zea mays)) | other results
1 | CO/N=C(/c1ccccc1C#N)c1c(O)c(C)nn(C)c1=O [Compound 77] | 0 | 0 | 0 | 0 | 10 | 0 | 0 | 0 | 0 | 0 | 30 | 0 | 70 | 30 | 40 | 40 | 0 | 0 | 0 | 0 | Ragweed plant response rating (0 to 100 scale) [11]: 30; Ragweed plant response rating [11]: 0; Ryegrass, Italian plant response rating (0 to 100 scale) [12]: 20; Ryegrass, Italian plant response rating [12]: 0; Foxtail, Giant plant response rating [13]: 0; Foxtail, Giant plant response rating (0 to 100 scale) [13]: 0; Kochia plant response rating (kochia (Kochia scoparia) [14]): 0; Kochia plant response rating (0 to 100 scale) (kochia (Kochia scoparia) [14]): 0; Pigweed plant response rating [15]: 0; Pigweed plant response rating (0 to 100 scale) [15]: 0; Barnyardgrass plant response rating [16]: 0; Barnyardgrass plant response rating (0 to 100 scale) [16]: 0; Ragweed plant response rating [17]: 10; Ragweed plant response rating (0 to 100 scale) [17]: 30; Ryegrass, Italian plant response rating [18]: 0; Ryegrass, Italian plant response rating (0 to 100 scale) [18]: 0
2 | CON=C(c1cccc(C)c1F)c1c(O)c(C)nn(C)c1=O [Compound 70] | 0 | 0 | 0 | 0 | 40 | 0 | 0 | 0 | 30 | 0 | 80 | 70 | 90 | 80 | 80 | 70 | 30 | 0 | 0 | 0 | Ragweed plant response rating (0 to 100 scale) [11]: 80; Ragweed plant response rating [11]: 80; Ryegrass, Italian plant response rating (0 to 100 scale) [12]: 70; Ryegrass, Italian plant response rating [12]: 0; Foxtail, Giant plant response rating [13]: 0; Foxtail, Giant plant response rating (0 to 100 scale) [13]: 10; Kochia plant response rating (kochia (Kochia scoparia) [14]): 0; Kochia plant response rating (0 to 100 scale) (kochia (Kochia scoparia) [14]): 50; Pigweed plant response rating [15]: 0; Pigweed plant response rating (0 to 100 scale) [15]: 40; Barnyardgrass plant response rating [16]: 0; Barnyardgrass plant response rating (0 to 100 scale) [16]: 10; Ragweed plant response rating [17]: 70; Ragweed plant response rating (0 to 100 scale) [17]: 80; Ryegrass, Italian plant response rating [18]: 0; Ryegrass, Italian plant response rating (0 to 100 scale) [18]: 10
3 | CCc1cccc(/C(=N\OC)c2c(O)c(C)nn(C)c2=O)c1 [Compound 68] | 0 | 0 | 0 | 0 | 10 | 0 | 0 | 0 | 30 | 30 | 80 | 70 | 80 | 30 | 70 | 60 | 0 | 0 | 0 | 0 | Ragweed plant response rating (0 to 100 scale) [11]: 90; Ragweed plant response rating [11]: 70; Ryegrass, Italian plant response rating (0 to 100 scale) [12]: 30; Ryegrass, Italian plant response rating [12]: 20; Foxtail, Giant plant response rating [13]: 0; Foxtail, Giant plant response rating (0 to 100 scale) [13]: 20; Kochia plant response rating (kochia (Kochia scoparia) [14]): 10; Kochia plant response rating (0 to 100 scale) (kochia (Kochia scoparia) [14]): 40; Pigweed plant response rating [15]: 50; Pigweed plant response rating (0 to 100 scale) [15]: 80; Barnyardgrass plant response rating [16]: 0; Barnyardgrass plant response rating (0 to 100 scale) [16]: 0; Ragweed plant response rating [17]: 20; Ragweed plant response rating (0 to 100 scale) [17]: 50; Ryegrass, Italian plant response rating [18]: 30; Ryegrass, Italian plant response rating (0 to 100 scale) [18]: 60
